Holding throughout (format): in vivo
In experiment [1] the test system is corn earworm (CEW; Helicoverpa zea). Nature of the experiment: Insecticidal test for corn earworm, 128-well diet tray assay. The following applies: 144 h, 50 μg/cm2 on artificial diet, second instar larvae, six days at 25° C. The gist of the method: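 Second-instar H. zea larvae, three to five per well, on artificial diet surface-treated with 50 μg/cm^2 compound (90:10 acetone-water, dried), eight wells per compound. Held 6 days at 25° C, 14:10 light-dark; percent mortality averaged over wells.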

In experiment [2] the test system is beet armyworm (BAW; Spodoptera exigua). In words: Insecticidal test for beet armyworm, 128-well diet tray assay. The note with it: 144 h, 50 μg/cm2 on artificial diet, second instar larvae, six days at 25° C. In outline: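 Second-instar larvae, three to five per well, fed on artificial diet surface-treated with 50 μg/cm^2 compound (applied in 90:10 acetone-water, dried). Held 6 days at 25 °C, 14:10 light-dark; percent mortality scored per well and averaged over eight wells.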

Experiment [3] concerns green peach aphid (Myzus persicae). Nature of the experiment: Insecticidal test for green peach aphid in foliar spray assay. The note with it: 72 h, 200 ppm foliar spray on cabbage seedlings, graded after three days, Abbott corrected % control, read-out: Mortality GPA 200 ppm. The gist of the method:
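Cabbage seedlings infested with 20-50 wingless adult and nymph aphids a day before treatment were sprayed to runoff at 200 ppm (0.025% Tween 20 diluent), four pots per treatment. After three days at about 25 °C and 40% RH, live aphids were counted and % control derived by Abbott's correction against solvent-sprayed plants.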

Where only a bound is given, the exact number is not on record here.

Take `FC(F)(F)Oc1ccc(-n2cnc(-c3ccc(/C=N/NC(=S)Nc4c(Cl)cccc4Cl)cc3)n2)cc1` [Compound 29]: the mortality at 50 µg/cm2 in experiment [1] and in experiment [2] was 50 to 100% throughout. Further, the mortality (in general, the share of the test organisms that died) at 200 ppm in experiment [3] was less than 80%.
In the case of `FC(F)(F)Oc1ccc(NC(=S)N/N=C/c2ccc(-c3ncn(-c4ccc(OC(F)(F)F)cc4)n3)cc2)cc1` [Compound 26], the mortality at 50 µg/cm2 in experiment [1] and in experiment [2] was 50 to 100% each time. In experiment [3], the mortality at 200 ppm was less than 80%.
Consider `FC(F)(F)Oc1ccc(-n2cnc(-c3ccc(/C=N/NC(=S)NCCc4ccccn4)cc3)n2)cc1` [Compound 6], for which the mortality at 50 µg/cm2 in experiment [1] and in experiment [2] was 50 to 100% in each case. Moreover, the mortality at 200 ppm in experiment [3] was less than 80%.
For the molecule `C/C(=N\NC(=S)Nc1c(C)cccc1C)c1ccc(-c2ncn(-c3ccc(OC(F)(F)F)cc3)n2)cc1` [Compound 126], the mortality at 50 µg/cm2 in experiment [1] and in experiment [2] was 50 to 100% each time. For the same molecule, the mortality at 200 ppm in experiment [3] was less than 80%.
On to `Cc1cccc(Cl)c1NC(=S)N/N=C/c1ccc(-c2ncn(-c3ccc(OC(F)(F)F)cc3)n2)cc1` [Compound 65], for which the mortality at 50 µg/cm2 in experiment [1] and in experiment [2] was 50 to 100% each time. Also, the mortality at 200 ppm in experiment [3] was less than 80%.
In the case of `FC(F)(F)Oc1ccc(-n2cnc(-c3ccc(/C=N/NC(=S)NCCN4CCOCC4)cc3)n2)cc1` [Compound 16], the mortality at 50 µg/cm2 in experiment [1] and in experiment [2] was 50 to 100% each time. Also, the mortality at 200 ppm in experiment [3] is less than 80%.
`CCCCCNC(=S)N/N=C/c1ccc(-c2ncn(-c3ccc(OC(F)(F)F)cc3)n2)cc1` [Compound 24]: the mortality at 50 µg/cm2 is less than 50% in experiment [1] and 50 to 100% in experiment [2]. Further, the mortality at 200 ppm in experiment [3] is less than 80%.

The values are drawn from patent US8680269B2, “Pesticidal compositions” (Dow AgroSciences, LLC., priority 2009, dated 2014).
